This note sets out measurements from patent publication US10369133B2, “Immunosuppressive compounds and therapeutics” (UNIVERSITY OF TENNESSEE RESEARCH FOUNDATION, priority 2013, dated 2019).

SMILES strings stand for the structures. Several values for one entry are separate records, joined by “and”; a condition that tells them apart may be missing. Identical values can stand only once.

One data set has as its system NF-κB. The data set can be described thus: NF-κB SEAP reporter gene assay in INS-1E cells. Format: cell-based, rat. Particulars: for NF-κB activities in INS-1E cells: printed "at 504" (FIG. 2B: 5 μM), cytokine cocktail 10 ng/mL TNFα, 5 ng/mL IL-1β, 10 ng/mL IFN-γ, 24 hours. How it is done:
Briefly, a plasmid construct containing NF-kB promoter and SEAP gene was transferred into INS-1E cells by lipofectamine. SEAP was then expressed and secreted into culture supernatant and allowed […] detection using a substrate PNPP under 405 nm. […] NF-kB activity was measured 24 hours after addition of cytokine cocktail (10 ng/mL TNFα, 5 ng/mL IL-1β and 10 ng/mL IFN-γ) alone or with JP-3-110 (5 μM) or TNP (5 μM) or MPA (5 μM). Blank, no cytokine stimulation. Cyt, cytokine cocktail. Results are presented as the mean±S.D., n=3.
INS-1E cells which were stably transfected with the SEAP gene containing the response-element for NF-κB were used to screen for anti-inflammatory activity. Briefly, 10^6 cells/well were seeded overnight followed by treatment with 10 ng/mL human recombinant TNFα and either TNP or hybrid drug JP-3-110 (1 μM). SEAP activity was measured 18 h later in supernatant samples (50 µL) using the NF-κB SEAPorter™ Assay Kit (IMGENEX, San Diego, Calif.) and a microplate luminometer. SEAP activity was normalized to the total protein content.
In general terms: A reporter such as luciferase makes a cellular process visible.

The test system of the next data set is human CD3+ T cells. Kind of data set: Mixed lymphocyte reaction: proliferation of PHA-stimulated T cells. Particulars: PHA 1 μg/mL; 5 μM; in 4 days. In kind it is cell-based. As for the experimental part:
Briefly, human peripheral blood mononuclear cells PBMCs were isolated from human buffy coat using Ficoll-Paque. […] Results are presented as the mean±S.D., n=6.
PBMCs were isolated using Ficoll Paque. T cells were isolated from PBMCs using Dynabeads for. T cells were stimulated with PHA (1 μg/ml) for 24 h alone or in the presence of TNP (5 μM) or JP-3-110 (5 μM) for additional 4 days. The total number of PBMCs was measured using T4 Automatic Cell Counter (Nexcelom, Lawrence, Mass.). The extent of T cell activation was determined by measuring the level of IL-2, IL-2sRa, TNFα and IFN-γ in the medium using ELISA at indicated time.
Mixed lymphocytes reaction was used to determine the immunosuppressive effects of MPA and JP-3-110. T cells were purified using dynabeads from peripheral blood mononuclear cells (PBMCs), which were initially isolated from human buffy coat (FIG. 8A). […] The levels of IL-2, IL-2sRa, TNFα and IFNγ were detected by ELISA to study the effects of JP-3-110 and MPA on T cell activation.

Another data set concerns human islets. The data set can be described thus: Dynamic insulin release (perifusion) assay of human islets. Format: cell-based. The note with it: co-incubation with drug; for insulin release pattern under stimulatory glucose: basal then stimulatory glucose. How it is done:
Briefly, 50 islets from each group were perifused with basal glucose for 60 min and stimulatory glucose for 30 min and finally with basal glucose until insulin release reversed to the basal level. Samples were collected through an automatic fraction collector and analyzed for insulin content by ELISA.
The insulin secretion from human islets was quantified using a dynamic islet perifusion assay as described before. See Wu et al., 2011, The Journal of Gene Medicine, 13:658-669. Briefly, 50 islets from each group were handpicked and loaded onto a Swinnex 13 chamber (Millipore, Burlington, Mass., USA) and perifused with Krebs-Ringer bicarbonate HEPES buffer of the following composition (in mM): 129 NaCl, 5 NaHCO3, 4.8 KCl, 1.2 KH2PO4, 1.2 MgSO4, 2.5 CaCl2, and 10 HEPES at pH 7.4. The flow rate was maintained at 1 ml/min with a peristaltic pump (Themo Fisher, Waltham, Mass.) and the temperature was maintained at 37° C. with a solution heater (Warner Instruments, Hamden, Conn.). Islets were first perifused with basal glucose for 60 min, stimulatory glucose for 20 min and basal glucose until insulin release reversed to the basal level. The perifusion speed was set to 2 mL/minute and samples were collected once per minute through an automatic fraction collector (Waters, Milford, Mass.) and analyzed for insulin content by ELISA.
A dynamic insulin release assay was used to evaluate the function of human islets. Briefly, […] handpicked human islets were sequentially perfused with basal and stimulatory glucose. The samples were collected using an auto-sampler and subjected to ELISA.

Data set [1] in a line: Aqueous solubility of JP-3-110 by HPLC (saturated water solution). In kind it is physicochemical. How it is done: The column was Inertsil ODS-3, 250×4.6 mm, 5 μm. […] From top to bottom, 0.2, 2, 20, 200, 2000 μg/mL of JP-3-110 in acetonitrile (ACN).
(§1) Quinic acid amide analog TNP was synthesized as described before. See Zeng et al., 2009, Bioorganic & Medicinal Chemistry Letters, 19:5458-5460. JP-3-110 was synthesized by conjugating TNP with MPA and the structure of JP-3-110 was confirmed by 1H NMR. FIG. 1B. […] FIGS. 7A-7D. To improve solubility, the inventors conceived to introduce aqueous solubility enhancing groups such as ionizable groups —CO2H, —SO3H or amino groups, sugars at positions R1, R2 and/or R10 of Formulas II and III. Such introduction would require routine skills. The ester bond of JP-3-110 is susceptible to hydrolytic degradation, releasing TNP and MPA as two single drugs. More than 40% of JP-3-110 in the aqueous solution will be degraded when stored in 4° C. for 1 week (FIGS. 9A-9C).

Data set [2] in a line: Hydrolytic stability of JP-3-110 aqueous solution by HPLC. Format: physicochemical. Particulars: aqueous solution (0.4 mg/mL) stored in 4° C. for 1 week. How it is done: The peak at 2 minutes was denoted as MPA degraded from JP-3-110.
as §1

For `COc1c(C)c2c(c(O)c1C/C=C(\C)CCC(=O)O)C(=O)OC2` [MPA, mycophenolic acid, reference compound], the “NF-κB activities in INS-1E cells” value in the data set on NF-κB was “significantly reduced”. Moreover, in the data set with human CD3+ T cells, the “proliferation of T cells” value was “suppress the proliferation of T cells”. Further, in the data set on human islets, the “total insulin release to stimulatory glucose” value was “significantly reduction” and the “insulin release pattern under stimulatory glucose” value is given as “impaired the insulin release from both phases”.
Regarding `CCCCNC(=O)[C@]1(O)C[C@@H](O)[C@@H](O)[C@H](OC(=O)CC/C(C)=C/Cc2c(OC)c(C)c3c(c2OC(C)=O)C(=O)OC3)C1` [JP-3-110, (1R,2R,3R,5S)-5-(butylcarbamoyl)-2,3,5-trihydroxycyclohexyl (E)-6-(4-acetoxy-6-methoxy-7-methyl-3-oxo-1,3-dihydroisobenzofuran-5-yl)-4-methylhex-4-enoate], the “solubility class according to USP solubility criteria” value in data set [1] is on record as “practically insoluble”. The solubility – broadly, the concentration that dissolves in the medium under given conditions – in data set [1] (thermodynamic from solid, by HPLC) is 480 µg/mL and 800 µM. Further, the “JP-3-110 degraded in aqueous solution” value in data set [2] is listed as “More than 40%”. The “reduction in NF-κB activities compared among the three groups” value in the data set with NF-κB (MPA, TNP and JP-3-110 compared, cytokine cocktail) was “most reduction”. In the data set with NF-κB, the “NF-κB activities in INS-1E cells” value was “significantly reduced”. In the data set with human CD3+ T cells, the “proliferation of T cells” value was “equally potent as MPA”. Also, the “insulin release pattern under stimulatory glucose” value with human islets is on record as “clear biphasic insulin release”.
